Experiments:
Cbl-b [1] = target: T1, Cbl-b (Homo sapiens, UniProt Q13191); experiment: Cbl-b inhibition assay (Cbl-b activity assay, FRET, Biological Example 1; 100 mM NaCl, 60 nM Src kinase); assay type: biochemical; conditions: upper bound stated in text lists; read-out: IC50 values in the Cbl-b inhibition assay of Biological Example 1
Summary of the method: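 Inhibition is read as loss of FRET signal. The signal arises when Src-phosphorylated, N-terminal biotinylated Avi-Cbl-b (captured by streptavidin-terbium) binds UbcH5B carrying covalently linked Bodipy-Fluorescein-tagged ubiquitin.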

Cbl-b [2] = target: T1, Cbl-b; experiment: Cbl-b activity assay (Cbl-b inhibition assay), TR-FRET of Cbl-b interaction with UbcH5B-Ub; assay type: biochemical; conditions: assay buffer with 100 mM NaCl, 60 nM Src kinase; read-out: Cbl-b activity IC50
Summary of the method: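 TR-FRET readout of Cbl-b binding to Bodipy-fluorescein N-terminally labeled Ub conjugated to UbcH5B C85K, measured with compound present. After compound incubation, 60 nM Src kinase with 1 mM ATP and 5 mM MgCl2 (final) was added for 1.5 h, then a further 1 h incubation; asterisked values used 50 mM NaCl buffer and 30 nM Src.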

Cbl-b (residues 36-427) = Cbl-b (residues 36-427) (Homo sapiens, UniProt Q13191); experiment: Cbl-b binding assay (SPR, Biacore T200); conditions: 20° C., 1:1 binding model
Chain of Cbl-b (residues 36-427) (Q13191 36-427): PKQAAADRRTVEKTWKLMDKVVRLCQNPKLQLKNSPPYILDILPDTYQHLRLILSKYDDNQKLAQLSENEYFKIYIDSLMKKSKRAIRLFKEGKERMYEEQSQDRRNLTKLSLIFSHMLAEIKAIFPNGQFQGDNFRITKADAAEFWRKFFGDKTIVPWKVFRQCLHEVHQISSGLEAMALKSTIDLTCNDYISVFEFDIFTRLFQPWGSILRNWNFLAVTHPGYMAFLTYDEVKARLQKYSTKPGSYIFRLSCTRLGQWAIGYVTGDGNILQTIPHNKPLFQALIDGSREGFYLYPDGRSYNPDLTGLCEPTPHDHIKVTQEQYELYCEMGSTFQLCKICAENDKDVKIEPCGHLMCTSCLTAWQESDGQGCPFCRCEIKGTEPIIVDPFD
Summary of the method: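 Affinities derived from global 1:1 steady-state or kinetic fits of double-referenced, solvent-corrected SPR data, 20 °C, NeutrAvidin-capture chip. Compound series (top 100 or 50 μM, 8–10 points) injected 50 s, 90–180 s dissociation. Asterisked values used 50 mM instead of 100 mM NaCl and 30 nM Src kinase.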

T-cells = experiment: In vivo activity: CD25 expression on CD4+ or CD8+ T-cells of mice stimulated with anti-CD3 antibody; conditions: 2 μg anti-CD3 antibody, 24 hours
Experimental: A method of determining the pharmacodynamic profile of Cbl-b inhibitors was performed by dosing strains of mice with competent immune systems such as C57BL/6 or BALB/c with a Cbl-b inhibitor. The Cbl-b inhibitor was dissolved in a suitable formulation and administered by one of various routes such as intravenous (IV), intraperitoneal (IP), subcutaneous (SC), or oral (PO), at a suitable dose level and frequency (e.g. twice per day BID or thrice per day TID) as informed by prior pharmacokinetic and tolerability studies. Following administration of the Cbl-b inhibitor, T-cells and indirectly other immune cells (e.g. via cytokine production) were stimulated in vivo by administration of an anti-CD3 antibody or antigen-binding fragment thereof in PBS at defined amounts such as 2 μg or 10 μg per animal by routes such as IV or IP (See Hirsh et al., J. Immunol., 1989; Ferran, et al., Eur. J. Immunol., 1990). Additional study control arms included groups of mice treated with a vehicle formulation alone (i.e., formulation without the Cbl-b inhibitor and anti-CD3 antibody), a formulation containing the Cbl-b inhibitor alone, a formulation containing the anti-CD3 antibody alone, PBS alone, or combinations of these agents. The level of immune activation was then assessed by analysis of plasma cytokine levels and/or expression of activation markers on immune cells (e.g. T-cells). Blood or lymphoid organs (e.g. spleen) were collected at defined time points (e.g. 8 hours or 24 hours). Blood samples were processed to collect plasma for determination of cytokine levels using standard methods known in the art. Cytokines measured included IL-2, IFNγ, and TNFα. Additional blood samples and lymphoid tissues were processed for flow cytometric analysis of immune cells (e.g. T-cells) using standard methods to determine expression of cell type-specific markers and activation markers such as CD25 and/or CD69. Augmentation of immune stimulation by Cbl-b inhibitor administration was assessed by comparing the relative concentrations of cytokines in plasma, or the expression levels of activation markers on immune cells between appropriate groups (e.g. mice treated with Cbl-b inhibitor and 2 μg anti-CD3 antibody versus mice treated with vehicle and 2 μg anti-CD3 antibody).
Cbl-b inhibitors were tested to determine their ability to induce or enhance the level of cytokines (e.g. IL-2, IFNγ, and TNFα) in blood obtained from treated mice stimulated with an anti-CD3 antibody, which is indicative of modulation of the immune response. Cbl-b inhibitors were also tested to determine their ability to induce or enhance the expression of cell surface markers on T-cells (e.g. CD25 and/or CD69) isolated from treated mice stimulated with an anti-CD3 antibody, which is indicative of modulation of the immune response.
Readouts were reported as fold change over baseline. The fold change was calculated from the mean value of mice treated with Cbl-b inhibitor and 2 μg anti-CD3 antibody, with the baseline defined as the mean value of mice treated with vehicle and 2 μg anti-CD3 antibody. Increases in the percentage of cells with surface expression of CD25 on CD4+ T-cells or CD8+ T-cells greater than 1.5-fold over baseline at 24 hours were considered a positive response. Increases in the plasma concentration of IL-2, IFNγ, and TNFα greater than 1.5-fold over baseline at 8 hours post-stimulation were also considered a positive response (Table 8). Fold changes were ranked into bins according to their readouts as follows: A indicates >2.50, B indicates 2.01-2.50, C indicates 1.51-2.00, D indicates 1.00-1.50, and E indicates <1.00.

T-cell [3] = experiment: IL-2 secretion from T-cells co-stimulated with anti-CD3 and anti-CD28 antibody (Biological Example 2); assay type: cell-based, human; conditions: Homo sapiens, T-cell, primary human total T-cells, baseline = anti-CD3/anti-CD28 stimulated cells without inhibitor, read-out: IL-2 secretion, Anti-CD3/Anti-CD28 stimulation, fold change over baseline; for fold induction at 0.3 µM: 0.3 μM compound; for fold induction at 1 µM: 1 μM compound
Summary of the method: (§1)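 No assay protocol given; T-cells stimulated with anti-CD3 alone or anti-CD3 plus anti-CD28, with or without Cbl-b inhibitor. Activation read as IL-2 secretion or CD25 surface staining, expressed as fold over baseline from uninhibited cells […].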

T-cell [4] = experiment: CD25 cell surface staining on T-cells co-stimulated with anti-CD3 and anti-CD28 antibody (Biological Example 2); assay type: cell-based, human; conditions: Homo sapiens, T-cell, primary human total T-cells, baseline = anti-CD3/anti-CD28 stimulated cells without inhibitor, read-out: CD25 staining, Anti-CD3/Anti-CD28 stimulation, fold change over baseline; for fold induction at 0.3 µM: 0.3 μM compound; for fold induction at 1 µM: 1 μM compound
Summary of the method: as §1

T-cell [5] = experiment: IL-2 secretion from T-cells stimulated with anti-CD3 antibody alone (Biological Example 2); assay type: cell-based; conditions: primary human total T-cells, read-out: IL-2 secretion, Anti-CD3 stimulation, fold change over baseline; for fold induction at 1 µM: 1 μM compound
T-cell [6] = experiment: CD25 cell surface staining on T-cells stimulated with anti-CD3 antibody alone (Biological Example 2); assay type: cell-based; conditions: primary human total T-cells, baseline = anti-CD3/anti-CD28 stimulated cells without inhibitor, read-out: CD25 staining, Anti-CD3 stimulation, fold change over baseline; for fold induction at 1 µM: 1 μM compound

T1 sequence (Q13191 36-427): as above

Row | SMILES | IC50 (Cbl-b [1]) [nM] | IC50 (Cbl-b [2]) [nM] | Kd (Cbl-b (residues 36-427)) [nM] | CD4+ T-cell % CD25+ (T-cells; 135 mpk PO BID) | CD8+ T-cell % CD25+ (T-cells; 135 mpk PO BID) | CD4+ T-cell % CD25+ (T-cells; 180 mpk PO BID) | CD8+ T-cell % CD25+ (T-cells; 180 mpk PO BID) | fold induction at 0.3 µM (T-cell [3]) | fold induction at 1 µM (T-cell [3]) | fold induction at 4 µM (T-cell [3]; 4 μM compound) | fold induction at 0.3 µM (T-cell [4]) | fold induction at 1 µM (T-cell [4]) | fold induction at 4 µM (T-cell [4]; 4 μM compound) | fold induction at 1 µM (T-cell [5]) | fold induction at 8 µM (T-cell [5]; 8 μM compound) | fold induction at 1 µM (T-cell [6]) | fold induction at 8 µM (T-cell [6]; 8 μM compound)
1 | C[C@@H](Cc1nncn1C)c1cccc(N2Cc3c(cccc3C(F)(F)F)C2=O)c1 [Compound 255b] | ≤ 10000 | 1000 to 3000 | 3000 to 10000 | E (E indicates <1.00) | E (E indicates <1.00) | E (E indicates <1.00) | E (E indicates <1.00) | – | – | – | – | – | – | – | – | – | –
2 | Cn1cnnc1CC(C)(C)c1cccc(N2Cc3c(cc(C4CC4)cc3C(F)(F)F)C2=O)c1 [Compound 477, 6-cyclopropyl-2-(3-(2-methyl-1-(4-methyl-4H-1,2,4-triazol-3-yl)propan-2-yl)phenyl)-4-(trifluoromethyl)isoindolin-1-one] | ≤ 100 | < 100 | < 100 | – | – | – | – | 1.01 to 2.5 | 2.51 to 5 | 5 to 7.5 | 1.01 to 1.3 | 1.01 to 1.3 | 1.31 to 1.5 | 0.101 to 0.15 | > 0.201 | 0.801 to 1 | > 1
3 | Cn1cnnc1CC1(c2cccc(N3Cc4c(cc(CN5CCC(F)CC5)cc4C(F)(F)F)C3=O)c2)COC1 [Compound 489, 6-[(4-fluoropiperidin-1-yl)methyl]-2-(3-{3-[(4-methyl-1,2,4-triazol-3-yl)methyl]oxetan-3-yl}phenyl)-4-(trifluoromethyl)-3H-isoindol-1-one] | ≤ 100 | < 100 | – | C (C indicates 1.51-2.00) | D (D indicates 1.00-1.50) | – | – | – | – | – | – | – | – | – | – | – | –
4 | Cn1cnnc1CC1(c2cccc(NC(=O)c3cc(Cn4ccnn4)nc(C4CC4)n3)c2)COC1 [Compound 506, 2-cyclopropyl-N-(3-{3-[(4-methyl-1,2,4-triazol-3-yl)methyl]oxetan-3-yl}phenyl)-6-(1,2,3-triazol-1-ylmethyl)pyrimidine-4-carboxamide] | ≤ 100 | < 100 | < 100 | – | – | – | – | 1.01 to 2.5 | 2.51 to 5 | – | 1.01 to 1.3 | 1.31 to 1.5 | – | 0.101 to 0.15 | – | 0.801 to 1 | –
5 | Cn1cnnc1CC1(c2cccc(N3Cc4c(cc(CN5CC[C@H](F)C5)cc4C4CC4)C3=O)c2)COC1 [Example 554, (S)-4-cyclopropyl-6-((3-fluoropyrrolidin-1-yl)methyl)-2-(3-(3-((4-methyl-4H-1,2,4-triazol-3-yl)methyl)oxetan-3-yl)phenyl)isoindolin-1-one] | ≤ 100 | < 100 | < 100 | – | – | – | – | > 7.5 | > 7.5 | – | 1.31 to 1.5 | 1.31 to 1.5 | – | 0.151 to 0.2 | – | > 1 | –
6 | C[C@@H](c1cc2c(c(C(F)(F)F)c1)CN(c1cccc(C3(Cc4nncn4C)COC3)c1)C2=O)N1CCC(F)CC1 [Example 622a, (S)-6-(1-(4-fluoropiperidin-1-yl)ethyl)-2-(3-(3-((4-methyl-4H-1,2,4-triazol-3-yl)methyl)oxetan-3-yl)phenyl)-4-(trifluoromethyl)isoindolin-1-one] | – | – | – | B (B indicates 2.01-2.50) | D (D indicates 1.00-1.50) | – | – | – | – | – | – | – | – | – | – | – | –
7 | C[C@H](c1cc2c(c(C(F)(F)F)c1)CN(c1cccc(C3(Cc4nncn4C)COC3)c1)C2=O)N1CCC(F)CC1 [Example 622b, (R)-6-(1-(4-fluoropiperidin-1-yl)ethyl)-2-(3-(3-((4-methyl-4H-1,2,4-triazol-3-yl)methyl)oxetan-3-yl)phenyl)-4-(trifluoromethyl)isoindolin-1-one] | – | – | – | B (B indicates 2.01-2.50) | D (D indicates 1.00-1.50) | – | – | – | – | – | – | – | – | – | – | – | –

From patent US20220324835A1 (Nurix Therapeutics, Inc., priority 2018, published 2022)
